Data on eight compounds can be found in patent publication EP2021356B1, “HIV VACCINE” (priority 2006, dated 2007).

The target of one assay is HLA-A*0201 molecule (Homo sapiens, UniProt P04439, D140Y/D185E/D98H/E176V/E277Q/G131W/G231S/I119V/I121R/I166T/I218V/L300P/L318F/N151K/N90K/P208A/P217A/Q86G/Q94H/R138H/R169H/T345S). The experiment in a line: In vitro binding to HLA-A*0201.
In assay [1] the test system is peptide pulsed HHD-EL4S3-Rob target cells. Particulars: Corbet et al., 2003; cited from earlier work.

Ends that are not written are not given here.

In turn, GLADQLIHI [Vif 101 (9 I)] yielded an IC50 on HLA-A*0201 molecule of 30 nM. In turn, HLADQLIHQ [G1HL9Q] yielded a half-inhibitory concentration (IC50) on HLA-A*0201 molecule of 1160 nM. At HLA-A*0201 molecule, `CC[C@H](C)[C@H](NC(=O)[C@H](CC(C)C)NC(=O)[C@H](CCC(N)=O)NC(=O)[C@H](CC(=O)O)NC(=O)[C@H](C)NC(=O)[C@H](CC(C)C)NC(=O)CN)C(=O)N[C@@H](Cc1c[nH]cn1)C(=O)N[C@@H](CC(C)C)C(=O)O` [Vif 101 (9L)] yielded a half-maximal inhibitory concentration (IC50) of 219 nM. Same read-out and setting: to SLADQLIHL [Vif 101 (1 S)] belongs 43 nM. With ALVEMGHHV [Vpu66(9V)^mod], in assay [1], the “immunogenicity of anchor-optimized epitope with cross-reaction to the natural epitope” value is reported as “very strong immune response”. For FLGKIWPV [Gag433(9V)^mod], in assay [1], the “immunogenicity of anchor-optimized epitope with cross-reaction to the natural epitope” value was “very strong immunogens”. In the case of DLADQLIHL [Vif 101 (1 D)], the IC50 at HLA-A*0201 molecule was 1950 nM. As for ELADQLIHL [Vif101(1E)^var], the IC50 at HLA-A*0201 molecule worked out at 6590 nM.
